Reference: patent US20230390315A1, “COMPOSITIONS AND METHODS FOR TREATING ISCHEMIC CONDITIONS” (The Regents of the University of California, priority 2020, published 2023)

Experiments:
[1] = tested on: ERK and AKT; test: Western blot of ERK and AKT activation in HUVEC and hDMVECs; format: cell-based, human; conditions: 40 uM; HUVEC and hDMVECs
Protocol: (§1) Cells were allowed to reach 80% confluency in 12-well plates. […] At various time points, plates were taken out of the incubator and kept on ice. Cell monolayers were first washed once with ice-cold PBS before lysis with 250 μl of Pierce RIPA buffer (ThermoFisher Scientific, Rockford, IL) or use 50 mM Tris-HCl (pH 7.6), 150 mM NaCl, 10% Glycerol, 1% NP-40 containing protease/Phosphatase inhibitor cocktail (100×) (Cell signaling, #5872). Lysates were collected and mixed with 4×Bolt LDS Sample Buffer (Novex, Carlsbad, CA) in the presence of Halt protease inhibitors and phosphatase inhibitor cocktail (ThermoFisher scientific, #NP0007). The samples were subjected to SDS-PAGE (Bolt 4-12% Bis-Tris Plus, Invitrogen) using Bolt MES SDS running buffer or NuPAGE 3-8% Tris-Acetate gel using Tris-Acetate SDS running buffer (Novex). HUVECs (passage 6-8) were plated in EBM-2 basal medium (Lonza) with 0.2% FBS. […] Equal amounts of protein lysates were analyzed by SDS-PAGE and blotted with the indicated antibodies. Proteins were transferred using Tris-Glycine buffer with 20% Methanol (Proteonomics grade) (Apex BioResearch Products). Membranes were first incubated with 5% milk in TBST, pH 7.6 (TEKnova, Hollister, CA), followed by blotting with primary and secondary antibodies. […]

[2] = in vivo
[3] = target: T1, α-mannosidase from Jack Bean (Canavalia ensiformis, UniProt C0HJB3); test: α-mannosidase activity assay; format: biochemical
T1 construct: purchased M7257
Protocol: a-mannosidase activity was measured using substrate p-nitrophenyl α-mannopyranoside (1 mM). Enzyme from Jack Bean ([MUT]) (final concentration of 0.077 U) was incubated at 37° C. in a final volume of 50 μl of 50 mM potassium phosphate buffer, pH 7.5. α-glucosidase was assayed with substrate p-nitrophenyl α-glucoside (7 mM). […] The incubation was stopped by addition of an equal volume of acid-based stop solution (R&D systems, 895032).

[4] = tested on: HUVEC; test: HUVEC proliferation assay; format: cell-based, human
Protocol: (§2) Proliferation assays with BCECs and BRECs were performed. Log-phase growing BCECs or BRECs (passage <10) were trypsinized, re-suspended and seeded in 96-well plates (no coating) in low-glucose DMEM supplemented with 10% bovine calf serum, 2 mM glutamine, and antibiotics (growth medium), at a density of 1200-1500 cells per well in 200 μl volume. All reagents were added at the indicated final concentrations. After 3-6 days, cells were incubated with AlamarBlue for 4 hrs. Fluorescence was measured at 530 nm excitation wavelength and 590 nm emission wavelength. The experiments were repeated at least three times. To create a hypoxic condition, cells were placed in a hypoxia incubator with a mixture of gas consisting of 1% 02, 5% CO2 and 94% Nz. On each 96-well plate, untreated and VEGF-treated (10/ng/ml) wells were included to monitor plate-to-plate variations. 20% methanol or 0.05% DMSO served as negative controls. 0.05% DMSO served as negative controls when Cas was tested in these cells. Human RMVECs and human adult DMVECs were split into Gelatin-coated 96 wells (2000 cells per well) in low glucose DMEM containing 10% FBS. 1200 cells/well was set up for proliferation assay in low glucose media containing FBS. Data was collected at day 4 or 5. HUVEC (p7-10) were grown on gelatin-coated plate until it reached 70-80% confluency.
On the day of the assay, cells were dissociated with 0.05% trypsin, which was neutralized with 0.5% FBS-containing EBM. Cells were briefly spun and then re-suspended in 0.5% FBS-media. Cells were counted and plated in 96-well, 1000 cells/well. Triplicate wells were used for each treatment. Data were collected at day 3, and then cells were fixed in 4% paraformaldehyde for 15 min before adding crystal violet. Cell-covered areas were quantified after taking pictures by Image J software.

[5] = tested on: human retinal microvascular EC (hRMECs); test: hRMEC proliferation assay; format: cell-based
Protocol: as §2

[6] = tested on: bovine retinal microvascular endothelial cells (BREC); test: BREC proliferation assay; format: cell-based
Protocol: as §2

[7] = tested on: β-Glucosidase; test: β-glucosidase activity assay; format: biochemical, almond; conditions: up to 2 mM
Protocol: a-mannosidase activity was measured using substrate p-nitrophenyl α-mannopyranoside (1 mM). Enzyme from Jack Bean ([…]) (final concentration of 0.077 U) was incubated at 37° C. in a final volume of 50 μl of 50 mM potassium phosphate buffer, pH 7.5. α-glucosidase was assayed with substrate p-nitrophenyl α-glucoside (7 mM). Enzyme from Saccharomyces cerevisiae-type 1 (Sigma, G5003) (final concentration of 0.1 U) was incubated at 37° C. in a final volume of 50 μl of PBS, pH 7.5. β-Glucosidase was assayed with substrate 4-nitrophenyl β-D-glucopyranoside (Roche). Enzyme from almond (Sigma, G0395) (final concentration of 0.002 U) was incubated at 37° C. in a final volume of 50 μl of PBS, pH 7.5 containing 1% SDS. The incubation was stopped by addition of an equal volume of acid-based stop solution (R&D systems, 895032). Enzymatic activity was measured at 405 nm. α-glucosidase from Saccharomyces cerevisiae type I ([…]) with p-nitrophenyl α-D-glucopyranoside (Sigma, N1377) as the substrate.

[8] = tested on: bFGFR1 or β1 integrin; test: Western blot of protein molecular mass in non-ECs; format: cell-based; conditions: 400 μM and 2 mM
Protocol: as §1

T1 sequence (C0HJB3 whole entry): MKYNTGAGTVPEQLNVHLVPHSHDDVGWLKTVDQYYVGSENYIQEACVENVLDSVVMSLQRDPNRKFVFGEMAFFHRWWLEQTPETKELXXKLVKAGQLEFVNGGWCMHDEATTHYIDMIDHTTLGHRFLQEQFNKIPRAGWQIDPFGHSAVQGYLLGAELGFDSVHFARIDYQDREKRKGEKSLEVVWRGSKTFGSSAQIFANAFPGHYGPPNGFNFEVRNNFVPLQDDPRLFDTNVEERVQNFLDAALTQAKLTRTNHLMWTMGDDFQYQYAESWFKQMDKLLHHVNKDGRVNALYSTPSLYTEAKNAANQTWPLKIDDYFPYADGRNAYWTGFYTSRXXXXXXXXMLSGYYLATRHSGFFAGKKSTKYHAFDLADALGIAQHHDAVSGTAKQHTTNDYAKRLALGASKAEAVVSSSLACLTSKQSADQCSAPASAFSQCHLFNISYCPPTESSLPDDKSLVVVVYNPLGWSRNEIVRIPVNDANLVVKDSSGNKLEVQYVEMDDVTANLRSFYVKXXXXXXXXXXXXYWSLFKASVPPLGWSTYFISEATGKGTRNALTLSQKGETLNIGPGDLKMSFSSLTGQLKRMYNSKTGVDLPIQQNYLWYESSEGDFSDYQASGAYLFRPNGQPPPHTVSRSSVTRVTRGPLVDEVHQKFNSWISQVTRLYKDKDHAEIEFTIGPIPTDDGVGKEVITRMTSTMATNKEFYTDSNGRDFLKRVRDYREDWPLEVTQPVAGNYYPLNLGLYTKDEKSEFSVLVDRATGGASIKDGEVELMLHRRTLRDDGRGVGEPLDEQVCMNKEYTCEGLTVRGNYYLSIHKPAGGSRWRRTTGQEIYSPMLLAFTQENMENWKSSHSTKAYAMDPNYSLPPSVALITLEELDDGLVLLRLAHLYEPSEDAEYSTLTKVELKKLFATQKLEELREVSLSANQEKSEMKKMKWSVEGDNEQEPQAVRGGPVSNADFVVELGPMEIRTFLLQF

Structure (SMILES)	activation of ERK and AKT [1]	plasma free ManN peak level ([2]; male, C57BL/6, mouse, po)	time of plasma peak level ([2]; male, C57BL/6, mouse, po)	free ManN in ischemic leg muscle ([2]; male, C57BL/6, mouse, po, 2 h)	plasma free ManN detectable relative to peak ([2]; mouse)	concentration showing inhibitory activity [3]	additivity with VEGF on proliferation ([4]; HUVEC)	toxicity ([4]; HUVEC, at 5 mM)	HUVEC growth ([4]; ManN by itself)	additivity with VEGF on proliferation [5]	toxicity ([5]; at 5 mM)	additive effects in promoting BREC proliferation [6]	effect on β-glucosidase [7]	molecular mass change of bFGFR1 or β1 integrin in non-ECs [8]
O=C1N[C@@H]2[C@@H](O)[C@@H](O)[C@H](O)[C@@H](CO)N2C1=O [Kif, Kifunensine, reference compound]	significantly activate													
N[C@H](C=O)[C@@H](O)[C@H](O)[C@H](O)CO [ManN, 2-Amino-2-deoxy-D-mannose]		~100 nmol/ml plasma	1 h	0.17+/−0.18 nmol/mg protein	about half of that amount	400 µM	dose-dependent additivity with VEGF	minimal toxicity	stimulated	dose-dependent additivity with VEGF	minimal toxicity	Additive effects	No effect	induce molecular mass change
